The target of the experiment is AT2R (Homo sapiens (Human), UniProt P50052). The experiment is described as follows: Binding assay of compounds to AT2R (Tag-lite HTRF ligand binding kit). The conditions noted are these: 1 hour incubation at room temperature. The procedure:
The assay was performed in accordance with the instruction manual of Angiotensin AT2 Receptor Ligand Binding Assay Kit (#C1TT1AT2, Cisbio). First, a compound stock solution (10 mM) was diluted in a gradient at a 5× dilution ratio (including 10 concentrations, each with two replicates). 160 nL of compounds at different concentrations was added to a 384-well plate. 40 μL of 1×TLB was added to each well, and the mixture was shaken at room temperature for 15 minutes. 15 mL centrifuge tube added with 5 mL of 1×TLB was prepared in advance. The frozen labeled cells were thawed in a water bath at 37° C. (for 1 to 2 minutes), and the thawed cells were quickly transferred to the above 15 mL centrifuge tube. The mixture was mixed well and centrifuged at 1,000 g at room temperature for 5 minutes. The supernatant was removed, and the cells were resuspended by adding 2.7 mL 1×TLB. A new 384-well plate was taken, and 10 μL of mixed cells were added into the corresponding wells according to the assay design. 5 μL of 4× compound solution and 5 μL of 4× Tag-lite red fluorescent labeled ligand were added to each well. After incubation at room temperature for 1 hour, data were read using EnVision with an HTRF mode. The excitation light intensities at 665 nM and 615 nM in each well were read respectively, and the ratio was calculated (Ratio=A665nMIB615 nM). The IC50 value was calculated by means of GraphPad Prism8 software, where X represents logarithmic value of compound concentration; and Y represents ratio of A665 nM/B615 nM.
In general terms: In TR-FRET formats the signal depends on donor and acceptor labels being close together.
AT2R, sequence (P50052 whole entry): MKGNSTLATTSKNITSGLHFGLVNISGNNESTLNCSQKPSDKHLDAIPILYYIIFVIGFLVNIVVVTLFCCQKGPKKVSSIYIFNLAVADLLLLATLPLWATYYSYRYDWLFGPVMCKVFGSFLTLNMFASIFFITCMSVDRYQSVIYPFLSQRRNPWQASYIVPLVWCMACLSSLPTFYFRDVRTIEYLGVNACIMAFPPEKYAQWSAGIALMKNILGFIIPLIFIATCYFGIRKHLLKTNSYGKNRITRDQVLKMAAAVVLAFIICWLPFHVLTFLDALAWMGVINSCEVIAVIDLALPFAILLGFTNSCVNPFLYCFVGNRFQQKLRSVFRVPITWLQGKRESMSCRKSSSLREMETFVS
Take `CCCCOC(=O)NS(=O)(=O)c1sc(CC(C)C)cc1-c1ccc(Cn2ccnc2)cc1C` [Compound I-1, Butyl ((3-(4-((1H-imidazol-1-yl)methyl)-2-methylphenyl)-5-isobutylthiophen-2-yl)sulfonyl)carbamate]: the IC50 amounted to 4.28 nM. `CCCCOC(=O)NS(=O)(=O)c1sc(CC(C)C)cc1-c1ccc(Cn2ccnc2)c(C)c1` [Compound I-2, Butyl ((3-(4-((1H-imidazol-1-yl)methyl)-3-methylphenyl)-5-isobutylthiophen-2-yl)sulfonyl)carbamate] gave an IC50 of 3.32 nM. `CCCCOC(=O)NS(=O)(=O)c1sc(CC(C)C)cc1-c1ccc(Cn2ccnc2)cc1C#N` [Compound I-3, Butyl ((3-(4-((1H-imidazol-1-yl)methyl)-2-cyanophenyl)-5-isobutylthiophen-2-yl)sulfonyl)carbamate] yielded a half-maximal inhibitory concentration (IC50) of 3.95 nM.

As for `CCCCOC(=O)NS(=O)(=O)c1sc(CC(C)C)cc1-c1ccc(Cn2ccnc2)c(C#N)c1` [Compound I-4, Butyl ((3-(4-((1H-imidazol-1-yl)methyl)-3-cyanophenyl)-5-isobutylthiophen-2-yl)sulfonyl)carbamate], the IC50 was 3.54 nM. The molecule `CCCCOC(=O)NS(=O)(=O)c1sc(CC(C)C)cc1-c1ccc(Cn2ccnc2)nc1` [Compound I-6, Butyl ((3-(6-((1H-imidazol-1-yl)methyl)pyridin-3-yl)-5-isobutylthiophen-2-yl)sulfonyl)carbamate] came in with a half-maximal inhibitory concentration (IC50) of 11.4 nM.

On to `CCCCOC(=O)NS(=O)(=O)c1sc(CC(C)C)cc1-c1ccc(C(C)n2ccnc2)cc1` (stereo not shown) [Compound I-7, Butyl ((3-(4-(1-(1H-imidazol-1-yl)ethyl)phenyl)-5-isobutylthiophen-2-yl)sulfonyl)carbamate], for which the half-maximal inhibitory concentration (IC50) was found to be 3.8 nM. To `CCCCOC(=O)NS(=O)(=O)c1sc(CC(C)C)c(C)c1-c1ccc(Cn2ccnc2)cc1` [Compound I-8, Butyl ((3-(4-((1H-imidazol-1-yl)methyl)phenyl)-5-isobutyl-4-methylthiophen-2-yl)sulfonyl)carbamate] belongs 4.4 nM; to `COC(=O)NS(=O)(=O)c1sc(CC(C)C)cc1-c1ccc(Cn2ccnc2C)cc1C#N` [Compound I-10, Methyl (3-(2-cyano-4-((2-methyl-1H-imidazol-1-yl)methyl)phenyl)-5-isobutylthiophen-2-yl)sulfonylcarbamate], 2.15 nM; to `COC(=O)NS(=O)(=O)c1sc(CC(C)C)cc1-c1ccc(Cn2ccnc2C(C)(C)C)cc1C#N` [Compound I-17, Methyl (3-(4-((2-(tert-butyl)-1H-imidazol-1-yl)methyl)-2-cyanophenyl)-5-isobutylthiophen-2-yl)sulfonylcarbamate], 2.09 nM.

In turn, `Cc1nccn1Cc1ccc(-c2cc(CC(C)C)sc2S(=O)(=O)NC(=O)NCCC(F)(F)F)c(C#N)c1` [Compound I-18, 3-(2-cyano-4-((2-methyl-1H-imidazol-1-yl)methyl)phenyl)-5-isobutyl-N-((3,3,3-trifluoropropyl)carbamoyl)thiophene-2-sulfonamide] came in with an IC50 of 1.63 nM.

Molecule `Cc1cc(Cn2ccnc2C)ccc1-c1cc(CC(C)C)sc1S(=O)(=O)NC(=O)NCc1ccccn1` [Compound I-19, 5-isobutyl-3-(2-methyl-4-((2-methyl-1H-imidazol-1-yl)methyl)phenyl)-N-((pyridin-2-ylmethyl)carbamoyl)thiophene-2-sulfonamide] displayed an IC50 of 1 nM. `COC(=O)NS(=O)(=O)c1sc(CC(C)C)cc1-c1ccc(Cn2ccnc2C)c(C)c1` [Compound I-21, Methyl ((5-isobutyl-3-(3-methyl-4-((2-methyl-1H-imidazol-1-yl)methyl)phenyl)thiophen-2-yl)sulfonyl)carbamate] had a concentration for half-maximal inhibition (IC50) of 2.73 nM.

In the case of `CCNC(=O)NS(=O)(=O)c1sc(CC(C)C)cc1-c1ccc(Cn2ccnc2C)c(C)c1` [Compound I-22, N-(ethylcarbamoyl)-5-isobutyl-3-(3-methyl-4-((2-methyl-1H-imidazol-1-yl)methyl)phenyl)thiophene-2-sulfonamide], the concentration for half-maximal inhibition (IC50) was determined as 7.28 nM.

Turning to `Cc1cc(-c2cc(CC(C)C)sc2S(=O)(=O)NC(=O)NCCO)ccc1Cn1ccnc1C` [Compound I-23, N-((2-hydroxyethyl)carbamoyl)-5-isobutyl-3-(3-methyl-4-((2-methyl-1H-imidazol-1-yl)methyl)phenyl)thiophene-2-sulfonamide], the 50% inhibitory concentration (IC50) came out at 11.3 nM. Against the preceding molecule, the IC50 is about 1.6-fold higher. On to `COC(=O)NS(=O)(=O)c1sc(CC(C)C)cc1-c1ccc(Cn2ccnc2C)c(C#N)c1` [Compound I-24, Methyl ((3-(3-cyano-4-((2-methyl-1H-imidazol-1-yl)methyl)phenyl)-5-isobutylthiophen-2-yl)sulfonyl)carbamate], for which the IC50 was 1.51 nM. The molecule `COC(=O)NS(=O)(=O)c1sc(CC(C)C)cc1-c1ccc(Cn2ccnc2C(C)(C)C)cc1C` [Compound I-25, Methyl ((3-(4-((2-(tert-butyl)-1H-imidazol-1-yl)methyl)-2-methylphenyl)-5-isobutylthiophen-2-yl)sulfonyl)carbamate] showed a concentration for half-maximal inhibition (IC50) of 5.65 nM.

`COC(=O)NS(=O)(=O)c1sc(CC(C)C)c(C)c1-c1ccc(Cn2ccnc2C(C)(C)C)cc1` [Compound I-26, Methyl ((3-(4-((2-(tert-butyl)-1H-imidazol-1-yl)methyl)phenyl)-5-isobutyl-4-methylthiophen-2-yl)sulfonyl)carbamate] displayed a half-maximal inhibitory concentration (IC50) of 3.76 nM. This IC50 is about 1.5-fold lower than that of the molecule before. `COC(=O)NS(=O)(=O)c1sc(CC(C)C)cc1-c1ccc(Cn2ccnc2C(C)C)c(C#N)c1` [Compound I-27, Methyl ((3-(3-cyano-4-((2-isopropyl-1H-imidazol-1-yl)methyl)phenyl)-5-isobutylthiophen-2-yl)sulfonyl)carbamate] registered an IC50 of 3.35 nM. In the case of `CCOC(=O)NS(=O)(=O)c1sc(CC(C)C)c(C)c1-c1ccc(Cn2ccnc2C)cc1` [Compound I-28, Ethyl ((5-isobutyl-4-methyl-3-(4-((2-methyl-1H-imidazol-1-yl)methyl)phenyl)thiophen-2-yl)sulfonyl)carbamate] it was 4.06 nM; in that of `CCCOC(=O)NS(=O)(=O)c1sc(CC(C)C)c(C)c1-c1ccc(Cn2ccnc2C)cc1` [Compound I-29, Propyl ((5-isobutyl-4-methyl-3-(4-((2-methyl-1H-imidazol-1-yl)methyl)phenyl)thiophen-2-yl)sulfonyl)carbamate], 4.5 nM; in that of `CCCCOC(=O)NS(=O)(=O)c1sc(CC(C)C)c(C)c1-c1ccc(Cn2ccnc2C)cc1` [Compound I-31, Butyl ((5-isobutyl-4-methyl-3-(4-((2-methyl-1H-imidazol-1-yl)methyl)phenyl)thiophen-2-yl)sulfonyl)carbamate], 4.86 nM.

In the case of `CCc1nccn1Cc1ccc(-c2c(S(=O)(=O)NC(=O)OC)sc(CC(C)C)c2C)cc1` [Compound I-32, Methyl ((3-(4-((2-ethyl-1H-imidazol-1-yl)methyl)phenyl)-5-isobutyl-4-methylthiophen-2-yl)sulfonyl)carbamate], the IC50 was 1.32 nM. To `COC(=O)NS(=O)(=O)c1sc(CC(C)C)c(C)c1-c1ccc(Cn2ccnc2C(C)C)cc1` [Compound I-33, Methyl ((5-isobutyl-3-(4-((2-isopropyl-1H-imidazol-1-yl)methyl)phenyl)-4-methylthiophen-2-yl)sulfonyl)carbamate] belongs 1.61 nM. Take `COC(=O)NS(=O)(=O)c1sc(CC(C)C)c(C)c1-c1ccc(Cn2ccnc2C)c(C)c1` [Compound I-35, Methyl ((5-isobutyl-4-methyl-3-(3-methyl-4-((2-methyl-1H-imidazol-1-yl)methyl)phenyl)thiophen-2-yl)sulfonyl)carbamate]: the IC50 came to 3.4 nM. Against the preceding molecule, the IC50 is about 2.1-fold higher. To `CCCCOC(=O)NS(=O)(=O)c1sc(CC(C)C)cc1-c1ccc(Cn2ccnc2C)cc1C` [Compound I-36, Butyl ((5-isobutyl-3-(2-methyl-4-((2-methyl-1H-imidazol-1-yl)methyl)phenyl)thiophen-2-yl)sulfonyl)carbamate] belongs 2.39 nM.

For orientation: IC50 means the concentration that inhibits the measured activity by half. The low end stands for greater potency, the high end for weaker potency.

(Values after patent US20250214978A1, “AT2R AGONIST” (WUHAN HUMANWELL INNOVATIVE DRUG RESEARCH AND DEVELOPMENT …, priority 2022, published 2025).)
